Source: ChEMBL document CHEMBL4619790, “Design and Development of a Macrocyclic Series Targeting Phosphoinositide 3-Kinase δ” (ACS Med Chem Lett, 2020)

Assays:
[1] = Stability in minipig Hepatocyte assessed as clearance; assay type: ADME, cell-based, Sus scrofa; conditions: pig, hepatocytes; read-out: CLH
[2] = Unbound clearance in iv dosed rat; assay type: ADME, organism-based; conditions: in vivo
[3] = Volume of distribution at steady state in iv dosed rat; assay type: ADME, organism-based; conditions: in vivo, read-out: Vdss
[4] = Dissociation constant, pKa of compound; assay type: physicochemical
[5] = Permeability of the compound by PAMPA; assay type: ADME; conditions: read-out: permeability
[6] = Clearance in iv dosed rat; assay type: ADME, organism-based; conditions: in vivo
[7] = Half life in iv dosed rat; assay type: ADME, organism-based; conditions: in vivo
[8] = Lipophilicity, log D of the compound at pH 7.4 by chromatographic method; assay type: physicochemical; conditions: buffer
[9] = Stability in minipig microsomes assessed as clearance; assay type: ADME, Sus scrofa, Microsome; conditions: pig
[10] = Solubility of the compound by CLND method; assay type: physicochemical

Compound	CLint scaled [1] [mL/min/kg]	CL free [2] [mL/min/kg]	Vd [3] [L/kg]	pKa [4]	Papp [5] [×10⁻⁶ cm/s]	clearance [6] [mL/min/kg]	half-life [7] [h]	chromatographic logD [8]	CLint scaled [9] [mL/min/kg]	solubility kinetic [10] [µM]
COc1ncc(N2CCOc3ccc(CN(C)C)cc32)cc1NS(C)(=O)=O	< 0.89	587	8.5	9.4	14	233	0.6	1.6	1.63	≥ 406
COc1ncc2cc1NS(=O)(=O)CCN(C)Cc1ccc3c(c1)N2CCO3	< 0.89	192	1.8	5.7	53	12.3	1.5	4.3	0.92	≥ 331
